This note sets out measurements from patent publication US11261201B2 (priority 2018, dated 2022).

≈ marks a conversion by molar mass, not a printed value. Structures can show the parent of a compound that is named as a salt. Where two headings read alike, the source gives them in different places.

The subject of test [1] is A. baumannii. Put plainly: Gram negative MIC protocol (OD600, LB, 24 h). Conditions: Acinetobacter baumannii, read-out: MIC A. baumannii LB Media, A. baumannii, LB media, 24 h, OD600.
Description: (§1) Overnight bacterial cultures were grown in LB with no added antibiotics at 37° C. with shaking. A 1:1000 dilution of these cultures into LB was exposed to concentration gradients of compounds in 96-well plates (100 μL per well assay volume). Resulting plates were incubated at 37° C. for 24 h without shaking, and OD600 was measured at the end of the incubation. MICs were determined as the lowest concentrations at which OD600 remained at baseline.
Test [2] deals with H37RvMA. Put plainly: Tuberculosis Alamar Blue/Resazurin assay (MIC). The test is classed as cell-based. Particulars: Mycobacterium tuberculosis, H37RV, read-out: WT H37Rv MTB Activity.
Test [3] deals with E. coli. Put plainly: Gram negative MIC protocol (OD600, LB, 24 h). Conditions: Escherichia coli.
Description: as §1
Where [4] appears, read: read-out: MIC E. coli delta-TolC LB Media, E. coli delta-TolC, LB media, OD600.
Setting [5] is: read-out: MIC WT E. coli LB Media, WT E. coli, LB media, OD600.
The mark [6] stands for this setting: read-out: MIC E. coli delta-TolC LB Media, E. coli delta-TolC strain, LB media, 24 h, OD600.
Setting [7] is: read-out: MIC WT E. coli LB Media, wild-type E. coli, LB media, 24 h, OD600.

`FC(F)(F)c1ccc(CC2(NCc3ccccc3)CC2)cc1` [B96]: the MIC was more than 150 µM in test [1], more than 150 µM in test [2], 90 µM (≈ 27.5 µg/mL) in test [3] (setting [4]) and more than 150 µM in test [3] (setting [5]).
On to `CCCC(CC1CCCCC1)NCc1ccccc1` (stereo not drawn) [B165, N-benzyl-1-cyclohexylpentan-2-amine], for which the MIC is more than 150 µM in test [1], more than 150 µM in test [2] (WT H37Rv MTB), 60 µM (≈ 15.6 µg/mL) in test [3] (setting [4]) and more than 300 µM in test [3] (setting [5]).
Regarding `CC(CC1CCCCC1)NCc1ccccc1CS(=O)(=O)NC(=O)NC1CCCCC1` (stereo not drawn) [B449, N-(cyclohexylcarbamoyl)-1-(2-(((1-cyclohexylpropan-2-yl)amino)methyl)phenyl) methanesulfonamide], the MIC in test [1] was more than 150 µM; in test [2] (WT H37Rv MTB) it was more than 150 µM; in test [3] (setting [4]) it was 12 µM (≈ 5.4 µg/mL); in test [3] (setting [5]) it was more than 150 µM.
As for `CC(Cc1cnn(C)c1)NCc1ccccc1` (stereo not drawn) [B41], the MIC in test [1], in test [2], in test [3] (setting [4]) and in test [3] (setting [5]) was more than 150 µM each time.
Consider `c1ccc(CNCCC2CCCCCC2)cc1` [B102], for which the MIC in test [1] stood at 150 µM (≈ 34.7 µg/mL); in test [2] (WT H37Rv MTB) it was 91 µM (≈ 21.1 µg/mL); in test [3] (setting [4]), 90 µM (≈ 20.8 µg/mL); in test [3] (setting [5]), 120 µM (≈ 27.8 µg/mL).
`CC1(c2ccc(F)cc2)N(Cc2ccccc2)C12CC2` (stereo not drawn) [B98]: the MIC in test [1] was more than 150 µM; in test [2], more than 150 µM; in test [3] (read-out: MIC E. coli delta-TolC LB Media) it was 150 µM (≈ 40.1 µg/mL); in test [3] (read-out: MIC WT E. coli LB Media), more than 150 µM.
For the compound `CC(NCc1ccccc1)C1CC1c1ccc(F)cc1` (stereo not drawn) [B76], the MIC in test [1], in test [2] (WT H37Rv MTB), in test [3] (setting [4]) and in test [3] (setting [5]) was more than 150 µM throughout.
In the case of `CC(C)CNCc1ccccc1` [B136], the MIC in test [1], in test [2] (WT H37Rv MTB), in test [3] (setting [4]) and in test [3] (setting [5]) was more than 150 µM in each case.
Turning to `c1ccc(OCC2CCCO2)c(CNCCC2CCCCC2)c1` (stereo not drawn) [B329, 2-cyclohexyl-N-(2-((tetrahydrofuran-2-yl)methoxy)benzyl)ethanamine], the MIC in test [1] is more than 150 µM; in test [2] (WT H37Rv MTB), more than 150 µM; in test [3] (setting [6]), 33 µM (≈ 10.5 µg/mL); in test [3] (setting [7]) it was more than 150 µM.
`c1ccc(CNCC2CCCCCC2)cc1` [B99]: the MIC in test [1] was more than 150 µM; in test [2] (WT H37Rv MTB), 55 µM (≈ 12 µg/mL); in test [3] (setting [4]) it was more than 150 µM; in test [3] (setting [5]), more than 150 µM.
With `CC(CC1CCCCC1)NCc1ccccc1OC1CCCCC1` (stereo not drawn) [B387, 1-cyclohexyl-N-(2-(cyclohexyloxy)benzyl)propan-2-amine], the MIC in test [1] amounted to 55 µM (≈ 18.1 µg/mL); in test [2] (WT H37Rv MTB) it was 33.4 µM (≈ 11 µg/mL); in test [3] (setting [6]), 3 µM (≈ 0.989 µg/mL); in test [3] (setting [7]) it was 91 µM (≈ 30 µg/mL).
The corresponding values for `c1ccc(CNC2Cc3ccccc3C2)cc1` [B206, N-benzyl-2,3-dihydro-1H-inden-2-amine hydrochloride] are more than 300 µM, more than 150 µM, more than 300 µM and more than 300 µM.
Take `FC1(F)C2CCCCC21CCNCc1ccccc1` (stereo not drawn) [B183]: the MIC is more than 300 µM in test [1], more than 150 µM in test [2] (WT H37Rv MTB), more than 300 µM in test [3] (setting [4]) and more than 300 µM in test [3] (setting [5]).
As to `C#CCNC(=O)COc1ccccc1CNC(C)CC1CCCCC1` (stereo not drawn) [B359], the MIC in test [1] is 150 µM (≈ 51.4 µg/mL); in test [2] (WT H37Rv MTB), more than 150 µM; in test [3] (setting [6]), 12 µM (≈ 4.11 µg/mL); in test [3] (setting [7]), more than 150 µM.
Consider `CC1CC(C)CC(C(C)NCc2ccccc2)C1` (stereo not drawn) [B79], for which the MIC in test [1] was more than 150 µM; in test [2] (WT H37Rv MTB), 91 µM (≈ 22.3 µg/mL); in test [3] (setting [4]), more than 150 µM; in test [3] (setting [5]) it was more than 150 µM.
With `CC(CC1CCCCC1)NCc1ccccc1OCc1ccccc1Oc1ccccc1` (stereo not drawn) [B463, 1-cyclohexyl-N-(2-((2-phenoxybenzyl)oxy)benzyl)propan-2-amine], the MIC is more than 150 µM in test [1], 17 µM (≈ 7.3 µg/mL) in test [2] (WT H37Rv MTB), 4 µM (≈ 1.72 µg/mL) in test [3] (setting [4]) and more than 150 µM in test [3] (setting [5]).
In the case of `CC(CC1CCCCC1)NCc1ccccc1OC1CC2CC1C1CCCC21` (stereo not drawn) [B393, 1-cyclohexyl-N-(2-((octahydro-1H-4,7-methanoinden-5-yl)oxy)benzyl)propan-2-amine], the MIC is 150 µM (≈ 57.2 µg/mL) in test [1], 20.2 µM (≈ 7.71 µg/mL) in test [2] (WT H37Rv MTB), 7 µM (≈ 2.67 µg/mL) in test [3] (setting [6]) and more than 150 µM in test [3] (setting [7]).
Consider `CC(CC1CCCCC1)NCc1ccccc1OCC(=O)N1CCOCC1` (stereo not drawn) [B309], for which the MIC is more than 150 µM in test [1], more than 150 µM in test [2] (WT H37Rv MTB), 33 µM (≈ 12.4 µg/mL) in test [3] (setting [6]) and more than 150 µM in test [3] (setting [7]).
For the compound `COC(=O)c1ccccc1CNCCC1CCCCC1` [B258, methyl 2-((2-cyclohexylethylamino)methyl)benzoate hydrochloride], the MIC in test [1] was more than 150 µM; in test [2] (WT H37Rv MTB), more than 150 µM; in test [3] (setting [6]), 100 µM; in test [3] (setting [7]) it was more than 150 µM.
For `CCCCCCNCc1ccccc1` [B6], the MIC in test [1], in test [2] (WT H37Rv MTB), in test [3] (setting [4]) and in test [3] (setting [5]) was more than 150 µM throughout.
On to `COC(=O)Cc1cccc(CNCCC2CCCCC2)c1` [B440, methyl 2-(3-(((2-cyclohexylethyl)amino)methyl)phenyl)acetate], for which the MIC in test [1] was more than 150 µM; in test [2] (WT H37Rv MTB), 150 µM (≈ 43.4 µg/mL); in test [3] (setting [4]), more than 150 µM; in test [3] (setting [5]), more than 150 µM.
With `COc1ccc(C(C)C(C)NCc2ccccc2)cc1OC` (stereo not drawn) [B54], the MIC in test [1], in test [2], in test [3] (setting [4]) and in test [3] (setting [5]) was more than 150 µM in each case.
With `c1ccc(CNC(CC2CCCCC2)C2CC2)cc1` (stereo not drawn) [B167, N-benzyl-2-cyclohexyl-1-cyclopropylethanamine], the MIC in test [1] is more than 300 µM; in test [2] (WT H37Rv MTB) it was more than 150 µM; in test [3] (setting [4]), more than 300 µM; in test [3] (setting [5]) it was more than 300 µM.
With `CCC(CC1CCCCC1)NCc1ccccc1F` (stereo not drawn) [B166, 1-cyclohexyl-N-(2-fluorobenzyl)butan-2-amine hydrochloride], the MIC is 300 µM in test [1], more than 150 µM in test [2] (WT H37Rv MTB), 250 µM in test [3] (setting [4]) and more than 300 µM in test [3] (setting [5]).
Consider `CC(CC1CCCCC1)NCc1ccccc1OCCN(C)C` (stereo not drawn) [B315], for which the MIC in test [1] is 150 µM (≈ 47.8 µg/mL); in test [2] (WT H37Rv MTB), more than 150 µM; in test [3] (setting [6]), 150 µM (≈ 47.8 µg/mL); in test [3] (setting [7]), 91 µM (≈ 29 µg/mL).
Take `CC(Cc1ccc2ccccc2c1)NCc1ccccc1` (stereo not drawn) [B106]: the MIC in test [1] is more than 150 µM; in test [2] it was 150 µM (≈ 41.3 µg/mL); in test [3] (setting [4]), more than 150 µM; in test [3] (setting [5]), more than 150 µM.
`CSCCCOc1ccccc1CNC(C)CC1CCCCC1` (stereo not drawn) [B364]: the MIC was 150 µM (≈ 50.3 µg/mL) in test [1], 91 µM (≈ 30.5 µg/mL) in test [2] (WT H37Rv MTB), 3 µM (≈ 1.01 µg/mL) in test [3] (setting [6]) and 150 µM (≈ 50.3 µg/mL) in test [3] (setting [7]).
For `CCN1CC(COc2ccccc2CNC(C)CC2CCCCC2)OC1=O` (stereo not drawn) [B369], the MIC in test [1] is more than 150 µM; in test [2] (WT H37Rv MTB), more than 150 µM; in test [3] (setting [6]), 3 µM (≈ 1.12 µg/mL); in test [3] (setting [7]) it was more than 150 µM.
Take `COc1ccc(CCNCc2ccccc2)c2ccccc12` [B111]: the MIC is 150 µM (≈ 43.7 µg/mL) in test [1], 33 µM (≈ 9.62 µg/mL) in test [2] (WT H37Rv MTB), 150 µM (≈ 43.7 µg/mL) in test [3] (setting [4]) and more than 150 µM in test [3] (setting [5]).
On to `c1ccc(-c2ccc3ccccc3c2)c(CNCCC2CCCCC2)c1` [B234, 2-cyclohexyl-N-(2-(naphthalen-2-yl)benzyl)ethanamine hydrochloride], for which the MIC in test [1] was 31 µM; in test [2] (WT H37Rv MTB), 55 µM; in test [3] (setting [6]) it was 10 µM; in test [3] (setting [7]) it was more than 300 µM.
